Values of other authors as cited in patent US8486874B2, “Water-soluble processing oil agent” (Idemitsu Kosan Co., Ltd., priority 2009, dated 2013).

What was measured:
[1] = Peroral rat
[2] = compared with dicyclohexylamine, Table 1 data
[3] = Percutaneous rabbit

With `C1CCC(NC2CCCCC2)CC1` [Dicyclohexylamine, reference compound] as the compound, how does the LD50 [1] read?
The LD50 was “LD50 373 mg/kg^1)”.

What does the source list for `CN(C1CCCCC1)C1CCCCC1` [Methyldicyclohexylamine]?
Toxicity relative to dicyclohexylamine [2]: considerably lower; LD50 [1]: LD50 446 mg/kg^1); LDLo [3]: LDLo 2 g/kg^1)
